Assay results as given in patent publication US20230226027A1, “THIENOPYRIDINE DERIVATIVES FOR USE IN THE TREATMENT OF CORONAVIRUS INFECTION” (INSERM (INSTITUT NATIONAL DE LA SANTÉ ET DE LA RECHERCHE …, priority 2020, published 2023).
Where two headings read alike, the source gives them in different places.

Experiments:
SARS-CoV-2 [1] = format: cell-based; conditions: VeroE6 cells, 1 h pretreatment, MOI 0.001, viral RNA in supernatant 24 hours post-infection (FIG. 1)
SARS-CoV-2 [2] = format: cell-based; conditions: Calu-3 cells, 2 h pre-treatment, MOI 0.001, 24 hours post-infection (FIGS. 2A-2B)
SARS-CoV-2 [3] = format: cell-based; conditions: Calu-3 cells, concentration ≥ 10 µM, even when given 4 h post-infection, TCID50 24 hours post-infection (FIG. 4)
Calu-3 cells = test: Cellular viability assay (MTT) in Calu-3 cells; format: cell-based, human; conditions: 24 hours of treatment, MTT (FIG. 3)
Method: FIG. 3. Analysis of cellular viability in human lung epithelial Calu-3 cells treated with AM-001. Calu-3 cells treated for 24 hours with the indicated concentrations of AM-001. Cellular viability was measured with the Cell Proliferation Kit I (MTT) (Roche Applied Science, Indianapolis, IN) according to the manufacturer’s protocol.
Calu-3 cells were plated 48 hours before treatment in 96-wells plates at a density of 1.10^5 cells per well. After 24 hours of treatment with the different concentrations of AM-001, cells viability was measured using the Cell Proliferation Kit I (MTT) (Roche Applied Science, Indianapolis, IN) according to the manufacturer’s protocol.

Which results are given for Nc1c(C(=O)Nc2ccc(F)cc2)sc2nc(-c3cccs3)cc(-c3ccccc3)c12 [AM-001]?
replication of SARS-CoV-2 (SARS-CoV-2 [1]): Inhibition of SARS-CoV-2 replication; replication of SARS-CoV-2 (SARS-CoV-2 [1]; listed as AM001): significantly decreases the replication; SARS CoV-2 replication (viral RNA and infectious particles in supernatant) (SARS-CoV-2 [2]): inhibit SARS CoV-2 replication; infectious virus production (SARS-CoV-2 [3]): totally blocks infectious virus production; cellular toxicity (Calu-3 cells): no detected cellular toxicity
